Assay results as given in patent US7276491B2, “Anticoagulant and fibrinolytic therapy using p38 MAP kinase inhibitors” (Boehringer Ingelheim Pharmaceuticals, Inc., priority 2002, dated 2007).

Test system: LPS-induced activation of coagulation, fibrinolysis and the vascular endothelium
Assay: LPS study: randomized, double-blind, placebo-controlled human endotoxemia experiment
Type: in vivo
[1] = healthy male volunteers, high dose (600 mg oral) 3 h before LPS 4 ng/kg i.v.

Cc1ccc(-n2nc(C(C)(C)C)cc2NC(=O)Nc2ccc(OCCN3CCOCC3)c3ccccc23)cc1 [formula (III), 1-[3-tert-butyl-1-p-tolyl-1H-pyrazol-5-yl]-3-[4-(2-morpholin-4-yl-ethoxy)naphthalen-1-yl]-urea]
LPS-elicited increase in plasma levels of sE-selectin (endothelial cell activation) [1]: attenuated
LPS-elicited increase in plasma levels of vWF (endothelial cell activation) [1]: attenuated
LPS-induced coagulation activation (increase in plasma prothrombin fragment F1+2 concentrations) (healthy male volunteers, high end dosing (600 mg oral) 3 h before LPS 4 ng/kg i.v., vs placebo): inhibited LPS-induced coagulation activation, both delaying and diminishing the increase in plasma F1+2 concentrations
activation of the fibrinolytic system (healthy male volunteers, oral dose 3 h before LPS 4 ng/kg i.v., tPA, PAI-1, PAPc assayed): even stronger inhibitory effect
IL-6 concentrations (subjects treated during low grade endotoxemia (LPS i.v.)): reduced IL-6 concentrations
